Laboratory results taken from publication PMC5540273, “Progress towards a public chemogenomic set for protein kinases and a call for contributions” (PLoS ONE, 2017).

Legend:
Test in all cases: KINOMEscan competition binding
INSR = INSR (Homo sapiens, UniProt P06213); conditions: read-out: %Inh INSR
ADCK4 = target: T1, ADCK4 (Homo sapiens, UniProt Q96D53); conditions: read-out: %Inh ADCK4
T1 sequence (Q96D53 1-544): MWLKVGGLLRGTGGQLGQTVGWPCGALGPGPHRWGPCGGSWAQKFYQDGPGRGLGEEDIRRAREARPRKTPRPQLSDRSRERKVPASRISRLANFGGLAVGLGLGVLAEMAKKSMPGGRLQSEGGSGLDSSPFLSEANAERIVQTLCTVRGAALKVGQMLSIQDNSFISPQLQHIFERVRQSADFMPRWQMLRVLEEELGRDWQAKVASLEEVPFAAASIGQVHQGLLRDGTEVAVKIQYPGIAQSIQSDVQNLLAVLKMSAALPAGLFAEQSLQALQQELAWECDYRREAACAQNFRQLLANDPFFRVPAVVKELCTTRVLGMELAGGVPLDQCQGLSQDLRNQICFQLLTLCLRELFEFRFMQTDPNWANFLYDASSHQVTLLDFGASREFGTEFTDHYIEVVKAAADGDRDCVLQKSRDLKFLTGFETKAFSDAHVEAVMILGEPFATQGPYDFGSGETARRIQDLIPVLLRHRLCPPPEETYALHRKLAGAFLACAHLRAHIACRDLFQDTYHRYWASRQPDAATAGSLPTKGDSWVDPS

CSNK2A2 = CSNK2A2 (Homo sapiens, UniProt P19784); conditions: read-out: %Inh CSNK2A2
ANKK1 = target: T2, ANKK1 (Homo sapiens, UniProt Q8NFD2); conditions: read-out: %Inh ANKK1
T2 sequence (Q8NFD2 1-765): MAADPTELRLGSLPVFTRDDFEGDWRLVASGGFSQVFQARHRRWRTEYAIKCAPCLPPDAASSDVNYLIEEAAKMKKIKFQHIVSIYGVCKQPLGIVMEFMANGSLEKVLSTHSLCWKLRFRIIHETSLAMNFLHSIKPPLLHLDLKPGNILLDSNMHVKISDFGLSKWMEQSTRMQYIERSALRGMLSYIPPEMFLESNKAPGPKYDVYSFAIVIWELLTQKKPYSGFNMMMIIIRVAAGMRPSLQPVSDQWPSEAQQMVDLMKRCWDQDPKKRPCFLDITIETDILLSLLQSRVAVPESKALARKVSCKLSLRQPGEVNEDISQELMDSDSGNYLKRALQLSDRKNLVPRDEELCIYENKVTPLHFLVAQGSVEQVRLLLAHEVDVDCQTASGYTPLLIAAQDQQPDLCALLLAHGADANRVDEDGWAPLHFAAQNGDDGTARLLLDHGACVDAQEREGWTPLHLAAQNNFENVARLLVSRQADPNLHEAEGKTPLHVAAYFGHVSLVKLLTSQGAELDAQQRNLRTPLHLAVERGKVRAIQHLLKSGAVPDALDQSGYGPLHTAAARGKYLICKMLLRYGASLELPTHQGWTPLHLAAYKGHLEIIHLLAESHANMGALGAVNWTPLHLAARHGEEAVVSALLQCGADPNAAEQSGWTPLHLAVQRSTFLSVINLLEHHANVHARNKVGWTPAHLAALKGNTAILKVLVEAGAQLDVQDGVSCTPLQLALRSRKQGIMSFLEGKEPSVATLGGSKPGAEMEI

CSNK1A1L = target: T3, CSNK1A1L (Homo sapiens, UniProt Q8N752); conditions: read-out: %Inh CSNK1A1L
T3 sequence (Q8N752 1-337): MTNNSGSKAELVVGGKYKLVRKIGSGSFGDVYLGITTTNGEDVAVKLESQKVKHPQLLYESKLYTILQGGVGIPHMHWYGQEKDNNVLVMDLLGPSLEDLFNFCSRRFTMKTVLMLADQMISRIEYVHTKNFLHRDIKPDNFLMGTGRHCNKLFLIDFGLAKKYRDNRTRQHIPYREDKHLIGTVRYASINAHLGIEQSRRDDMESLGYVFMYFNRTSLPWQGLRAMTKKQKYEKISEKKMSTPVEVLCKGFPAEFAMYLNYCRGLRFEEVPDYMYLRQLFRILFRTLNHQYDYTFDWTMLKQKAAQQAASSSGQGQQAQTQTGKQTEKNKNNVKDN

DAPK1 = DAPK1 (Homo sapiens, UniProt P53355); conditions: read-out: %Inh DAPK1
CDKL5 = target: T4, CDKL5 (Homo sapiens, UniProt O76039); conditions: read-out: %Inh CDKL5
T4 sequence (O76039 1-960): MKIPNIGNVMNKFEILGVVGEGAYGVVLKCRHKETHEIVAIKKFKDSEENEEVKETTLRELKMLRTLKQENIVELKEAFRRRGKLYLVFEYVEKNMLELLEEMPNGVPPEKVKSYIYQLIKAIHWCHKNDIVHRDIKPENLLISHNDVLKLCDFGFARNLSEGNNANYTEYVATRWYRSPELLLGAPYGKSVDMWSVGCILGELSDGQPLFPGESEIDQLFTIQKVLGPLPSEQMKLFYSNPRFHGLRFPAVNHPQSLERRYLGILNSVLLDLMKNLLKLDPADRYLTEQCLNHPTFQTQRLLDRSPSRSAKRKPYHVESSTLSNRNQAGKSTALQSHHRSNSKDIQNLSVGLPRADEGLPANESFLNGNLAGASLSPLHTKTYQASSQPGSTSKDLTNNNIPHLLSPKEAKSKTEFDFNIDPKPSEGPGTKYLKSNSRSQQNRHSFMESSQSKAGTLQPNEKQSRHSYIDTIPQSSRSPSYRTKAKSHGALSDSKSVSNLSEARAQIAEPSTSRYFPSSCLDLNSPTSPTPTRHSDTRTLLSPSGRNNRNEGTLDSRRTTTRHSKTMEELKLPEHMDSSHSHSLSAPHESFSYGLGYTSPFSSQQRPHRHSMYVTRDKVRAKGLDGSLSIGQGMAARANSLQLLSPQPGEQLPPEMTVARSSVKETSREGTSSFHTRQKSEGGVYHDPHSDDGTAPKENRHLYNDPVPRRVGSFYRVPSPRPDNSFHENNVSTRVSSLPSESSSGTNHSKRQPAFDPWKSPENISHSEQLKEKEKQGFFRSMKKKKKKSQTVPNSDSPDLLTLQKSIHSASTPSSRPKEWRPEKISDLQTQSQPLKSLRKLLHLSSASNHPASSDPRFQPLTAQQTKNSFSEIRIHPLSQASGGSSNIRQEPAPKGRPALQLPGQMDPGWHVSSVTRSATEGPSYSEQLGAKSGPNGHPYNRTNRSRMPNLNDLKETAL

## Cn1cc(-c2cnc(N)c3c(-c4ccc5c(c4)CCN5C(=O)Cc4ccccc4)csc23)cn1 [UNC10225012A]
INSR
  inhibition at 1 µM: 12%
ADCK4
  inhibition at 1 µM: 0%
CSNK2A2
  inhibition at 1 µM: 1%
ANKK1
  inhibition at 1 µM: 0%
CSNK1A1L
  inhibition at 1 µM: 0%
DAPK1
  inhibition at 1 µM: 38%
CDKL5
  inhibition at 1 µM: 0%

## CS(=O)(=O)Cc1ccc(Nc2nccc(-c3c(-c4cccc(NC(=O)C5CCCCC5)c4)nn4ncccc34)n2)cc1 [UNC10225159A]
INSR
  inhibition at 1 µM: 42%
ADCK4
  inhibition at 1 µM: 0%
CSNK2A2
  inhibition at 1 µM: 1%
ANKK1
  inhibition at 1 µM: 0%
CSNK1A1L
  inhibition at 1 µM: 0%
DAPK1
  inhibition at 1 µM: 0%
CDKL5
  inhibition at 1 µM: 33%

## Cc1ccc(NC(=O)Nc2cccc(C(F)(F)F)c2)cc1 [UNC10225187A]
INSR
  inhibition at 1 µM: 0%
ADCK4
  inhibition at 1 µM: 0%
CSNK2A2
  inhibition at 1 µM: 0%
ANKK1
  inhibition at 1 µM: 0%
CSNK1A1L
  inhibition at 1 µM: 0%
DAPK1
  inhibition at 1 µM: 18%
CDKL5
  inhibition at 1 µM: 0%

## COc1cccc(OC)c1C(=O)Nc1cccc(-c2nn3ccccc3c2-c2ccnc(Nc3cccc(F)c3)n2)c1 [UNC10225310A]
INSR
  inhibition at 1 µM: 0%
ADCK4
  inhibition at 1 µM: 0%
CSNK2A2
  inhibition at 1 µM: 23%
ANKK1
  inhibition at 1 µM: 93.2%
CSNK1A1L
  inhibition at 1 µM: 0%
DAPK1
  inhibition at 1 µM: 10%
CDKL5
  inhibition at 1 µM: 0%

## O=c1cc(N2CCOCC2)nc2n(Cc3cccc(Cl)c3Cl)c(C3CC3)nn12 [UNC10225469A]
INSR
  inhibition at 1 µM: 0%
ADCK4
  inhibition at 1 µM: 0%
CSNK2A2
  inhibition at 1 µM: 0%
ANKK1
  inhibition at 1 µM: 0%
CSNK1A1L
  inhibition at 1 µM: 0%
DAPK1
  inhibition at 1 µM: 26%
CDKL5
  inhibition at 1 µM: 0%
